Values quoted from earlier work as cited in patent US20060105068A1, “Dietary supplement formulations containing Hoodia gordonii” (priority 2003, published 2006).

Key:
[1] = United States; therapeutic range; aspirin and associated compounds
[2] = after fifteen weeks; 1200 calorie/day diet
[3] = rats
[4] = system: cytochrome P450

Compound: CC(=O)OC1CC[C@@]2(C)C(=CC(=O)[C@@H]3[C@@H]2CC[C@]2(C)C(=O)CC[C@@H]32)C1 (stereo partly drawn) [Formula 7-Keto, 3-acetyl-7-oxo-dehydroepiandrosterone]
- body weight, body mass index (BMI), and waist and hip circumference versus placebo (8-week treatment period): statistically significant reductions
- tolerability / adverse events (8-week treatment period): well tolerated and no serious adverse events were reported
- effect on testosterone levels (human, in vivo): does not increase testosterone levels

Compound: CC(=O)Oc1ccccc1C(=O)O [aspirin]
- people who die each year [1]: 7,600

Compound: CCN[C@@H](C)Cc1cccc(C(F)(F)F)c1 [dexfenfluramine]
- weight lost [2]: 15.2+/−9.5 lbs

Compound: O=C(O[C@@H]1Cc2c(O)cc(O)cc2O[C@@H]1c1cc(O)c(O)c(O)c1)c1cc(O)c(O)c(O)c1 [epigallocatechin gallate]
- loss of body weight [3]: up to 21%
- decrease in appetite ([3]; after seven days of injections): 60%

Compound: NC(Cc1cc(I)c(Oc2cc(I)c(O)c(I)c2)c(I)c1)C(=O)O (stereo not drawn) [throxine]
- reduction in CYP450 ([4]; when throxine is increased): 60-80%

Compound: Naringinine [Naringinines]
- effect on cytochrome P450 enzymes [4]: inhibit
